Test results from US12059462B2, “Composition containing influenza vaccine” (priority 2018, dated 2024).

Tests used:
[1] = test system: synthetic peptide (H3) corresponding to a portion (long alpha helix) of the stem portion; details: mouse, in vivo, ip
[2] = test system: LAH binding monoclonal antibody (#2, #4 and #5); assay: Binding capacity of antibody to LAH epitope, order of formalin treatment; details: FIG. 15; H3N2 strain X31; formalin treatment after (Post-fix) or before (Pre-fix) the acidic treatment

membrane fusion-type H3N2 HA split vaccine: HA split vaccine of H3N2 influenza virus (strain X31) subjected to acidic treatment (pH 5.0), then formalin treatment
titer of the anti-LAH antibody in the sera [1]: higher titer of the anti-LAH antibody than the membrane fusion-type split vaccine (Pre-fix)
binding of the LAH binding monoclonal antibody to the vaccine [2]: more strongly than to the vaccine (Pre-fix)
